Literature values, collected in patent US11866384B2, “Compositions and their use in agricultural applications” (SYNSUS PRIVATE LABEL PARTNERS, LLC, priority 2018, dated 2024).

## dicyandiamide
  solubility in water: about 41 grams per liter
